`CNC(C)c1cccc(CNC(=O)c2c[nH]c3ccc(Cl)cc3c2=O)c1.Cl` (stereo not drawn): the melting point was 184 °C (dec.).

As to `Cl.O=C(NCc1cccc(CN2CCOCC2)c1)c1c[nH]c2ccccc2c1=O`, the melting point fell in the range of 203 to 208 °C.

`Cl.O=C(NCc1ccc(CN2CCOCC2)cc1)c1c[nH]c2ccccc2c1=O` displayed a melting point of 177 to 180 °C.

Compound `Cc1nc(Cc2ccc(CNC(=O)c3c[nH]c4ccc(F)cc4c3=O)cc2)c[nH]1.Cl` had a melting point of 120 to 122 °C.

In the case of `CCNCc1ccc(CNC(=O)c2c[nH]c3ccccc3c2=O)cc1.Cl`, the melting point was 252 °C (dec.).

For `CN(C)Cc1ccc(CNC(=O)c2c[nH]c3ccc(Cl)cc3c2=O)cc1.Cl`, the melting point was 198 °C (dec.).

Consider `CN(C)Cc1cccc(CNC(=O)c2c[nH]c3ccc(Cl)cc3c2=O)c1.Cl`, for which the melting point was 178 °C (dec.).

For the compound `CCOc1ccc2[nH]cc(C(=O)NCc3ccc(CN(C)C)cc3)c(=O)c2c1.Cl`, the melting point was 222 to 225 °C (dec.).

For the compound `Cl.O=C(NCc1ccccc1)c1c[nH]c2c(F)cccc2c1=O`, the melting point was 235 to 237 °C.

Take `CCCCNC(=O)c1c[nH]c2c(F)cccc2c1=O.Cl`: the melting point is 205 to 207 °C.

For the compound `O=C(NCC1CCCO1)c1c[nH]c2ccccc2c1=O` (stereo not drawn) [compound 1, N-tetrahydrofurfuryl 4-oxo-1,4-dihydro-quinoline-3-carboxamide], the melting point lay within 205 to 209 °C.

For `CC(C)CCNC(=O)c1c[nH]c2ccccc2c1=O` [compound 4, N-Isoamyl 4-oxo-1,4-dihydro-quinoline-3-carboxamide], the melting point was 180 to 181 °C.

Compound `O=C(NCc1ccccc1)c1c[nH]c2ccccc2c1=O` [compound 5, N-Benzyl 4-oxo-1,4-dihydro-quinoline-3-carboxamide] yielded a melting point of 173 °C.

For `O=C(NCc1ccc(F)cc1)c1c[nH]c2ccccc2c1=O` [compound 8, N-(4-Fluorobenzyl) 4-oxo-1,4-dihydro-quinoline-3-carboxamide], the melting point lay within 213 to 215 °C.

In turn, `O=C(NCc1ccco1)c1c[nH]c2ccccc2c1=O` [compound 9, N-[(2-Furanyl)methyl] 4-oxo-1,4-dihydro-quinoline-3-carboxamide] displayed a melting point of 193 to 195 °C.

For `O=C(NCc1ccc2c(c1)OCO2)c1c[nH]c2ccccc2c1=O` [compound 11, N-Piperonyl 4-oxo-1,4-dihydro-quinoline-3-carboxamide], the melting point was 207 °C.

`COc1ccc(CNC(=O)c2c[nH]c3ccccc3c2=O)cc1OC` [compound 12, N-(3,4-Dimethoxybenzyl) 4-oxo-1,4-dihydro-quinoline-3-carboxamide] gave a melting point of 211 to 212 °C.

`O=C(NCc1cccs1)c1c[nH]c2ccccc2c1=O` [compound 13, N-[(2-Thienyl)methyl] 4-oxo-1,4-dihydro-quinoline-3-carboxamide] came in with a melting point of 235 to 240 °C.

As for `CCOc1ccc(CNC(=O)c2c[nH]c3ccccc3c2=O)cc1` [compound 16, N-(4-Ethoxybenzyl) 4-oxo-1,4-dihydro-quinoline-3-carboxamide], the melting point is 203 to 205 °C.

`CCOCCCNC(=O)c1c[nH]c2ccccc2c1=O` [compound 17, N-(3-Ethoxypropyl) 4-oxo-1,4-dihydro-quinoline-3-carboxamide] displayed a melting point of 141 to 142 °C.

Turning to `CCNCc1cccc(CNC(=O)c2c[nH]c3ccc(Cl)cc3c2=O)c1` [compound 28, N-[3-(Ethylaminomethyl)benzyl] 6-chloro-4-oxo-1,4-dihydro-quinoline-3-carboxamide], the melting point was 148 °C (dec.).

As to `COCc1ccc2[nH]cc(C(=O)NCc3ccccc3)c(=O)c2c1` [compound 31, N-Benzyl 6-methoxymethyl-4-oxo-1,4-dihydro-quinoline-3-carboxamide], the melting point lay in the range of 195 to 196 °C.

`COCc1ccc2[nH]cc(C(=O)NCc3cccs3)c(=O)c2c1` [compound 32, N-[(2-Thienyl)methyl] 6-methoxymethyl-4-oxo-1,4-dihydro-quinoline-3-carboxamide]: the melting point is 225 to 226 °C.

In the case of `CCOCCCNC(=O)c1c[nH]c2ccc(COC)cc2c1=O` [compound 33, N-[(3-Ethoxy)propyl] 6-methoxymethyl-4-oxo-1,4-dihydro-quinoline-3-carboxamide], the melting point lay within 95 to 97 °C.

Regarding `CCCCNC(=O)c1c[nH]c2ccc(COC)cc2c1=O` [compound 34, N-Butyl 6-methoxymethyl-4-oxo-1,4-dihydro-quinoline-3-carboxamide], the melting point was 157 to 159 °C.

`CCOc1ccc2[nH]cc(C(=O)NCc3ccccc3)c(=O)c2c1` [compound 39, N-Benzyl 6-ethoxy-4-oxo-1,4-dihydro-quinoline-3-carboxamide] showed a melting point of 209 to 211 °C.

Turning to `CCOc1ccc2[nH]cc(C(=O)NCc3cccs3)c(=O)c2c1` [compound 41, N-[(2-Thienyl)methyl] 6-ethoxy-4-oxo-1,4-dihydro-quinoline-3-carboxamide], the melting point lay within 223 to 224 °C.

Take `CCOCCCNC(=O)c1c[nH]c2ccc(OCC)cc2c1=O` [compound 42, N-[(3-Ethoxy)propyl] 6-ethoxy-4-oxo-1,4-dihydro-quinoline-3-carboxamide]: the melting point was 179 to 181 °C.

Compound `CCOc1ccc2[nH]cc(C(=O)NCCCOC(C)C)c(=O)c2c1` [compound 43, N-[(3-Isopropoxy)propyl] 6-ethoxy-4-oxo-1,4-dihydro-quinoline-3-carboxamide] registered a melting point of 163 to 164 °C.

In the case of `CCOc1ccc2[nH]cc(C(=O)NCC3CCCO3)c(=O)c2c1` (stereo not drawn) [compound 44, N-[(2-Tetrahydrofuranyl)methyl] 6-ethoxy-4-oxo-1,4-dihydro-quinoline-3-carboxamide], the melting point is 181 to 182 °C.

Turning to `CCOc1ccc2[nH]cc(C(=O)NCCC(C)C)c(=O)c2c1` [compound 45, N-Isoamyl 6-ethoxy-4-oxo-1,4-dihydro-quinoline-3-carboxamide], the melting point was in the range of 180 to 183 °C.

`CCOc1ccc2[nH]cc(C(=O)NC3CCCCC3)c(=O)c2c1` [compound 46, N-Cyclohexyl 6-ethoxy-4-oxo-1,4-dihydro-quinoline-3-carboxamide] registered a melting point of 191 to 193 °C.

Regarding `CCOc1ccc2[nH]cc(C(=O)NCc3ccc4c(c3)OCO4)c(=O)c2c1` [compound 47, N-Piperonyl 6-ethoxy-4-oxo-1,4-dihydro-quinoline-3-carboxamide], the melting point fell in the range of 226 to 228 °C.

Compound `CCOc1ccc2[nH]cc(C(=O)NCCCOC)c(=O)c2c1` [compound 48, N-[(3-Methoxy)propyl] 6-ethoxy-4-oxo-1,4-dihydro-quinoline-3-carboxamide] yielded a melting point of 175 to 177 °C.

For the compound `CCOc1ccc2[nH]cc(C(=O)NCc3ccccc3F)c(=O)c2c1` [compound 49, N-(2-Fluorobenzyl) 6-ethoxy-4-oxo-1,4-dihydro-quinoline-3-carboxamide], the melting point was 237 to 238 °C.

`CCOc1ccc2[nH]cc(C(=O)NCc3cccc(F)c3)c(=O)c2c1` [compound 50, N-(3-Fluorobenzyl) 6-ethoxy-4-oxo-1,4-dihydro-quinoline-3-carboxamide] gave a melting point of 210 to 212 °C.

What is called melting point is the temperature of the solid-liquid transition.

For the origin of these results see US6413956B1, “Substituted 4-oxo-quinoline-3-carboxamides” (Neurogen Corporation, priority 1999, dated 2002).
